{"source": "patent US20110144077A1", "about": "“TREATMENT OF RETINAL DEGENERATION” (priority 2008, published 2011)", "key": {"[1]": {"test_system": "photoreceptor cells in the outer nuclear layer (ONL)", "test": "rd10 model of chronic retinal degeneration", "assay_type": "in vivo, rd10 mouse", "experimental": "Peanut agglutinin (PNA) staining: Eyes were fixed in 10% neutral buffered formalin overnight at 4° C., followed by cryoprotection in 25% sucrose overnight at 4° C. Frozen sections (7 μm) were blocked with 0.1% bovine serum albumin (BSA) in 0.1% tween/PBS for 30 minutes at room temperature. Sections were incubated with rhodamine conjugated PNA (Invitrogen, Dun Laoghaire, Ireland) for 20 minutes at room temperature as per manufacturers' instructions. Sections were mounted and viewed under a fluorescence microscope (Leica DM LB2; Leica, Nussloch, Germany) using a TRITC filter. Immunofluorescence: Eyes were fixed in 10% neutral buffered formalin overnight at 4° C., followed by cryoprotection in 25% sucrose overnight at 4° C. Frozen sections (7 μm) were blocked with 0.1% bovine serum albumin (BSA) in 0.1% tween/PBS for 1 hour at room temperature. Sections were incubated with anti-rhodopsin antibody (LAB VISION Corporation, Fremont, Calif., USA) overnight at 4° C. Sections were washed and incubated with FITC conjugated secondary mouse antibody (Dako, Glostrup, Denmark) for 1 hour at room temperature. Following further washes, sections were mounted and viewed under a fluorescence microscope (Leica DM LB2; Leica, Nussloch, Germany) using a FITC filter. […] It is a better model of the slow progression of typical human autosomal recessive RP than the acute light model as photoreceptor cells are lost over a period of weeks rather than days. Loss of photoreceptors in the rd10 mouse begins at approximately 2 weeks of age, with the peak of photoreceptor death occurring at postnatal day (P) 25."}, "photoreceptor cells": {"test_system": "photoreceptor cells", "test": "Light damage model in vivo, TUNEL staining of ONL", "set-up": "species or system albino balb/c mice", "experimental": "(§1) Apoptosis detection by Terminal deoxynucleotidyl transferase-mediated biotinylated UTP nick end labeling (TUNEL): Retinal explants were fixed in 10% neutral buffered formalin overnight at 4° C., followed by cryoprotection in 25% sucrose overnight at 4° C. Frozen sections (7 μm) were incubated with terminal deoxynucleotidyl transferase (MSC, Dublin, Republic of Ireland) and fluorescein-12-dUTP (Roche, Lewes, UK) according to manufacturers' instructions at 37° C. for 1 h. Sections were mounted and viewed under a fluorescence microscope (Leica DM LB2; Leica, Nussloch, Germany) using an FITC filter.\nLight damage model: Balb/c mice were dark adapted for 18 h prior to exposure to constant light. Mice were injected intraperitoneally with 100 mg/kg of norgestrel 1 hour prior to light damage. Immediately prior to light exposure their pupils were dilated with 0.5% cyclopentolate under red light. Retinal light damage was induced by exposure to 2 h of cool white fluorescent light at an illumination of 5000 lux. Following exposure to constant light, animals were placed in the dark for 24 h then killed immediately by cervical dislocation.\nTUNEL staining was performed as described above."}, "[2]": {"test_system": "photoreceptor cells in the outer nuclear layer (ONL)", "test": "Retinal explant culture, SNP induced apoptosis detected by TUNEL", "assay_type": "cell-based, C57BL/6 mice", "experimental": "Retinal explant culture: Eyes from postnatal day 10, C57BL/6 mice were removed and cleaned with 70% ethanol. The anterior segment, vitreous body, and sclera were removed and the retina mounted on Millicell nitrocellulose inserts (Millipore, Billerica, Mass.) photoreceptor-side down. Explants were cultured without retinal pigment epithelium (RPE) in 1.2 ml of R16 specialised media (from Dr. P. A. Ekstrom, Wallenberg Retina Centre, Lund University, Lund, Sweden) without additional serum. Treated explants were cultured in medium containing 300 μM of the nitric oxide donor SNP (sodium nitroprusside) for 24 h. Pre-treatment with norgestrel was for 1 hour.\nas §1"}, "[3]": {"conditions": "compared to uninjected or vehicle injected controls"}}, "note": "Entries after “also recorded” stand apart in the source; their conditions may differ."}
{"smiles": "C#CC1(O)CC[C@H]2[C@@H]3CCC4=CC(=O)CC[C@@H]4[C@H]3CC[C@@]21CC", "note": "(mixture of isomers) [norgestrel]", "values": [{"measurement": "protection of layers of photoreceptor nuclei, central retina", "setting": "[1]; 100 mg/kg IP every second day P18-P30, central retina", "result": "1-2 layers"}, {"measurement": "protection of layers of photoreceptor nuclei, peripheral retina", "setting": "[1]; 100 mg/kg IP every second day P18-P30, peripheral retina", "result": "4-5 layers"}, {"measurement": "protection of layers of photoreceptor nuclei in the ONL, central retina", "setting": "[1]; 100 mg/kg injected daily, P25, central retina", "result": "3-4 layers"}, {"measurement": "protection of layers in the ONL, peripheral retina", "setting": "[1]; 100 mg/kg injected daily, P25, peripheral retina", "result": "3-4 layers"}, {"measurement": "degeneration of central retina, photoreceptor nuclei remaining at P25 and P30 versus vehicle", "setting": "[1]; central retina, P25 and P30", "result": "degenerates more slowly"}, {"measurement": "PNA staining (cone photoreceptors) in the ONL", "setting": "[1]; [3]", "result": "more cone cells are found"}, {"measurement": "rhodopsin immunofluorescent staining (rod photoreceptors) in the ONL", "setting": "[1]; [3]", "result": "more rhodopsin positive cells remain"}, {"measurement": "degeneration of peripheral retina between P25 and P30 versus vehicle", "setting": "[1]; peripheral retina, P25 to P30", "result": "degeneration of the peripheral retina virtually ceases"}, {"measurement": "protection with injection every second day versus daily", "setting": "[1]; rd10, P25, every second day compared with daily", "result": "equally as protected"}, {"measurement": "protection of photoreceptors from light induced retinal damage / apoptosis", "setting": "photoreceptor cells; 100 mg/kg IP, 1 hour before 2 h light damage", "result": "protects from the retinal damage observed; also recorded: Photoreceptors are protected"}, {"measurement": "duration of protection after a single injection", "setting": "photoreceptor cells; 100 mg/kg, single injection, post light damage", "result": 72, "unit": "h"}, {"measurement": "protection from light induced cell death (TUNEL positive cells)", "setting": "photoreceptor cells; central retina, 24 hours, 100 mg/kg", "result": "approx 70%"}, {"measurement": "protection of photoreceptors from SNP induced apoptosis (TUNEL)", "setting": "[2]; ex vivo retinal explants, 300 μM SNP for 24 h, 1 hour norgestrel pre-treatment, increasing concentrations", "result": "protected from SNP induced apoptosis; also recorded: protects photoreceptive cells from SNP induced cell death"}, {"measurement": "toxicity to retinal cells", "setting": "[2]; retinal explants, norgestrel alone at the highest concentration used", "result": "not toxic to retinal cells"}]}
